Test results: ChEMBL document CHEMBL4376890, “Unique Sulfur-Aromatic Interactions Contribute to the Binding of Potent Imidazothiazole Indoleamine 2,3-Dioxygenase Inhibitors” (J Med Chem, 2020)

Target: T1, Indoleamine 2,3-dioxygenase 1 (Homo sapiens, UniProt P14902)
Test: Inhibition of human […] by HTS assay

T1 sequence (P14902 whole entry): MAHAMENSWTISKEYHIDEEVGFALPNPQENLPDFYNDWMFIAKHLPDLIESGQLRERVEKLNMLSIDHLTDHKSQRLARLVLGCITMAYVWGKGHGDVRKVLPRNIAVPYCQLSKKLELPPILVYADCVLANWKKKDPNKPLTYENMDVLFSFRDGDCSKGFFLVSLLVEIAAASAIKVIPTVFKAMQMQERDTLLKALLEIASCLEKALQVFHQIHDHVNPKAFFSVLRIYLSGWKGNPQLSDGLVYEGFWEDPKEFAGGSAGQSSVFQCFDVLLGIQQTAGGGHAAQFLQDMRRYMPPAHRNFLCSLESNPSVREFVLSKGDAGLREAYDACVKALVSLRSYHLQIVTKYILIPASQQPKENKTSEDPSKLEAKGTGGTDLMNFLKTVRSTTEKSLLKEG

Row | SMILES | IC50
1 | O=C(CSc1nnc2scc(-c3ccccc3)n12)Nc1ccc(Cl)cc1 | 1190 nM

Target: T1, Indoleamine 2,3-dioxygenase 1
Test: Inhibition of recombinant full-length N-terminal His-tagged human IDO1 (1 to 403 residues) expressed in Escherichia coli BL21(DE3) cells

Row | SMILES | IC50
2 | S=C(NCc1cnc2scc(C#CC3CC3)n12)Nc1cccc(Cl)c1 | 27.6 nM
3 | OC(c1ccccc1)c1cnc2scc(-c3ccc(Br)cc3)n12 (configuration not stated) | 1090 nM
4 | N#Cc1ccc(NC(=O)NCc2cnc3scc(C#Cc4cccnc4)n23)cc1 | 3200 nM
5 | CCCCNC(=S)NCc1cnc2scc(C#CC3CC3)n12 | 502 nM
6 | O=C(NCc1cnc2scc(C#CC3CC3)n12)Nc1cccc(Cl)c1 | 42 nM
7 | N#Cc1ccc(NC(=O)NCc2cnc3scc(C#Cc4ccsc4)n23)cc1 | 73.9 nM
8 | O=C(CSc1nnc2scc(-c3ccc(Cl)cc3)n12)c1ccc(Br)cc1 | 339 nM
9 | OC(c1cnc2scc(-c3ccc(Br)cc3)n12)C1CCCCC1 (configuration not stated) | 1280 nM
10 | N#Cc1ccc(NC(=O)NCc2cnc3scc(C#CC4CCCC4)n23)cc1 | 418 nM
11 | N#Cc1ccc(NC(=O)NCc2cnc3scc(C#Cc4ccc(Cl)s4)n23)cc1 | 823 nM
12 | N#Cc1ccc(NC(=S)NCc2cnc3scc(C#CC4CC4)n23)cc1 | 16.4 nM
13 | OC(c1cnc2scc(C#CC3CC3)n12)C1CCCCC1 (configuration not stated) | 7150 nM
14 | Brc1ccc(-c2csc3nccn23)cc1 | 380 nM
15 | CCCS(=O)(=O)NCc1cnc2scc(-c3ccc(Br)cc3)n12 | 1070 nM
16 | O=S(=O)(Cc1cccc(Cl)c1)NCc1cnc2scc(-c3ccc(Br)cc3)n12 | 744 nM
17 | Cc1sc2nccn2c1-c1ccc(Br)cc1 | 3110 nM
18 | O=C(CSc1nnc2scc(-c3ccc(Br)cc3)n12)c1ccc(Br)cc1 | > 10000 nM
19 | CC(C)CSc1nnc2scc(-c3ccc(Cl)cc3)n12 | 256 nM
20 | Cc1ccc(CS(=O)(=O)NCc2cnc3scc(-c4ccc(Br)cc4)n23)cc1 | 855 nM
21 | N#Cc1ccc(NC(=O)NCc2cnc3scc(C#CC4CC4)n23)cc1 | 102 nM
22 | O=C(CSc1nnc2scc(C3CCCCC3)n12)c1ccc(Br)cc1 | > 10000 nM
